Results: patent US9695155B2, “Herbicidal substituted pyrimidinyloxy benzene compounds” (E. I. DU PONT DE NEMOURS AND COMPANY, priority 2013, dated 2017)

Experiments:
[1] = system: giant foxtail; test: Test A preemergence; type: in vivo, Setaria faberii; conditions: 1000 g ai/ha, 0 to 100 scale, 0 no effect, 100 complete control, approx. 10 days
How it was run: (§1)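 Visual injury scored 0–100 (100 = complete control) against untreated controls about 10 days after treatment in a greenhouse. Test chemicals, formulated with surfactant in non-phytotoxic solvent, were sprayed on soil preemergence or on 2-10 cm, one- to two-leaf plants postemergence.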

[2] = system: morningglory; test: Test A preemergence; type: in vivo, Ipomoea spp.; conditions: 1000 g ai/ha, 0 to 100 scale, 0 no effect, 100 complete control, approx. 10 days
How it was run: as §1

[3] = system: velvetleaf; test: Test A preemergence; type: in vivo, Abutilon theophrasti; conditions: 1000 g ai/ha, 0 to 100 scale, 0 no effect, 100 complete control, approx. 10 days
How it was run: as §1

[4] = system: wheat; test: Test A preemergence; type: in vivo, Triticum aestivum; conditions: 1000 g ai/ha, 0 to 100 scale, 0 no effect, 100 complete control, approx. 10 days
How it was run: as §1

[5] = system: morningglory; test: Test A postemergence; type: in vivo, Ipomoea spp.; conditions: 1000 g ai/ha, 0 to 100 scale, 0 no effect, 100 complete control
How it was run: as §1

[6] = system: velvetleaf; test: Test A postemergence; type: in vivo, Abutilon theophrasti; conditions: 1000 g ai/ha, 0 to 100 scale, 0 no effect, 100 complete control
How it was run: as §1

[7] = system: corn; test: Test A postemergence; type: in vivo, Zea mays; conditions: 1000 g ai/ha, 0 to 100 scale, 0 no effect, 100 complete control
How it was run: as §1

[8] = system: blackgrass; test: Test C postemergence; type: in vivo, Alopecurus myosuroides
How it was run: (§2)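 Preemergence: seeds sown in a loam soil–sand blend and sprayed with test chemical in a non-phytotoxic solvent mixture containing surfactant. Postemergence: plants at 2 to 18 cm (1- to 4-leaf stage) in peat-based medium, treated with the same formulation. Greenhouse 13 to 15 days, then visual rating 0 (no effect) to 100 (complete control).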

[9] = system: wheat, winter; test: Test C postemergence; type: in vivo, Triticum aestivum
How it was run: as §2

[10] = system: galium; test: Test C postemergence; type: in vivo, Galium aparine
How it was run: as §2

[11] = system: johnsongrass; test: Test C postemergence; type: in vivo, Sorghum halepense
How it was run: as §2

[12] = system: pigweed; test: Test C postemergence; type: in vivo, Amaranthus retroflexus
How it was run: as §2

[13] = system: ragweed; test: Test C postemergence; type: in vivo, Ambrosia elatior
How it was run: as §2

[14] = system: soybean; test: Test C postemergence; type: in vivo, Glycine max
How it was run: as §2

[15] = system: oilseed rape; test: Test C postemergence; type: in vivo, Brassica napus
How it was run: as §2

[16] = system: waterhemp; test: Test C postemergence; type: in vivo, Amaranthus rudis
How it was run: as §2

[17] = system: kochia; test: Test C postemergence; type: in vivo, Kochia scoparia
How it was run: as §2

[18] = system: velvetleaf; test: Test C postemergence; type: in vivo, Abutilon theophrasti
How it was run: as §2

[19] = 16 g ai/ha, postemergence, 0 is no effect, 100 is complete control
[20] = 31 g ai/ha, postemergence, visual rating, scale 0 to 100 (0 no effect, 100 complete control), 13 to 15 days
[21] = 125 g ai/ha, postemergence, visual rating, scale 0 to 100 (0 no effect, 100 complete control)
[22] = Postemergence, 62 g ai/ha, scale 0 to 100 (0 no effect, 100 complete control), 13 to 15 days

## Clc1cnc(Oc2ccccc2-n2cc(Br)nn2)nc1 [Compound 223]
[1]
  Foxtail, Giant plant response rating: 100
[2]
  Morningglory plant response rating: 100
[3]
  Velvetleaf plant response rating: 100
[4]
  Wheat plant response rating: 80
[5]
  Plant response rating, Morningglory: 100
[6]
  Plant response rating, Velvetleaf: 100
[7]
  Plant response rating, Corn: 60
[8]; [19]
  Plant response rating (0 to 100), Blackgrass: 0
[8]; [20]
  Blackgrass plant response rating: 30
[8]; [21]
  Plant response rating, Blackgrass: 0
[8]; [22]
  Plant response rating, Blackgrass: 5
[9]; [19]
  Plant response rating (0 to 100), Wheat: 0
[9]; [20]
  Wheat plant response rating: 0
[9]; [21]
  Plant response rating, Wheat: 5
[9]; [22]
  Plant response rating, Wheat: 0
[10]; [19]
  Plant response rating (0 to 100), Galium: 75
[10]; [20]
  Galium plant response rating: 80
[10]; [21]
  Plant response rating, Galium: 100
[10]; [22]
  Plant response rating, Galium: 80
[11]; [19]
  Plant response rating (0 to 100), Johnsongrass: 0
[11]; [20]
  Johnsongrass plant response rating: 0
[11]; [21]
  Plant response rating, Johnsongrass: 5
[11]; [22]
  Plant response rating, Johnsongrass: 0
[12]; [19]
  Plant response rating (0 to 100), Pigweed: 70
[12]; [20]
  Pigweed plant response rating: 70
[12]; [21]
  Plant response rating, Pigweed: 90
[12]; [22]
  Plant response rating, Pigweed: 80
[13]; [19]
  Plant response rating (0 to 100), Ragweed: 10
[13]; [20]
  Ragweed plant response rating: 20
[13]; [21]
  Plant response rating, Ragweed: 75
[13]; [22]
  Plant response rating, Ragweed: 55
[14]; [19]
  Plant response rating (0 to 100), Soybean: 60
[14]; [20]
  Soybean plant response rating: 65
[14]; [21]
  Plant response rating, Soybean: 95
[14]; [22]
  Plant response rating, Soybean: 85
[15]; [19]
  Plant response rating (0 to 100), Oilseed Rape: 10
[15]; [20]
  Oilseed Rape plant response rating: 50
[15]; [21]
  Plant response rating, Oilseed Rape: 85
[15]; [22]
  Plant response rating, Oilseed Rape: 80
[16]; [19]
  Plant response rating (0 to 100), Waterhemp: 70
[16]; [20]
  Waterhemp plant response rating: 60
[16]; [21]
  Plant response rating, Waterhemp: 95
[16]; [22]
  Plant response rating, Waterhemp: 85
[17]; [19]
  Plant response rating (0 to 100), Kochia: 70
[17]; [20]
  Kochia plant response rating: 85
[17]; [21]
  Plant response rating, Kochia: 90
[17]; [22]
  Plant response rating, Kochia: 80
[18]; [19]
  Plant response rating (0 to 100), Velvetleaf: 30
[18]; [20]
  Velvetleaf plant response rating: 55
[18]; [21]
  Plant response rating, Velvetleaf: 90
[18]; [22]
  Plant response rating, Velvetleaf: 80
